{"source": "paper PMC6214026", "about": "“PSMA-Oriented Target Delivery of Novel Anticancer Prodrugs: Design, Synthesis, and Biological Evaluations of Oligopeptide-Camptothecin Conjugates” (International Journal of Molecular Sciences, 2018)", "key": {"[1]": {"tested_on": "DU145 cells (non-PSMA-expressing)", "assay": "cells", "format": "cell-based, human", "details": "MTT, 72 h, mean ± SD, n = 3; read-out: IC50 DU145", "method": "(§1) The cytotoxicities of PSMA-activated prodrug CPT-HT-J-ZLn and PSMA hydrolysate CPT-D-GLn were evaluated by MTT assays on PSMA-expressing (PSMA^+) cancer cell LNCaP-FGC, non-PSMA-expressing (PSMA^−) cancer cells HepG2, MCF-7, Hela, DU145, and PC-3, and normal cells MDCK, LO2, respectively, using CPT as a positive control.\n(§2) The human prostate cancer cell line (LNCaP-FGC), human prostate cancer cell line (PC-3), human prostate cancer cell line (DU-145), human breast cancer cell line (MCF-7), human hepatocellular carcinoma cell line (HepG2), human cervical cancer cell line (Hela), were obtained from the Chinese Academy of Medical Sciences and Peking Union Medical College. The cultures of the cells were maintained as a monolayer in RPMI 1640 or DMEM supplemented with 10% (v/v) heat inactivated fetal bovine serum and 1% (v/v) enicillin/streptomycin (Corning, New York, NY, USA) and incubated at 37 °C in a humidified atmosphere with 5% CO2. The tested compounds were dissolved in DMSO (Sigma, St. Louis, MO, USA) and added at required concentrations to the cell culture.\n(§3) The cytotoxicity of all the tested compounds was evaluated in vitro via the MTT method against PSMA-expressing LNCaP-FGC cells and non-PSMA-expressing cells HepG2, Hela, MCF-7, DU145, PC-3 cells using CPT as the positive control. Tumor cells growing in the logarithmic phase were seeded in 96-well plates at a density 3 × 10^3 cells/well and incubated overnight. The following day, cells were then treated with serial dilutions of the tested compounds for 72 h. At the end of this incubation, 20 µL of 5 mg/mL methylthiazol tetrazolium (MTT) was added to each well and incubation proceeded at 37 °C for another 4 h. After the supernatant medium was thrown away, 150 µL dimethylsulphoxide (DMSO) were added to each well and absorbance was measured at 490 nm using a plate reader (BIORAD 550 spectrophotometer, Bio-rad Life Science Development Ltd., Berkeley, CA, USA). Experiments were performed in triplicate and the values were the average of three (n = 3) independent experiments. The concentration of the compound that results in 50% growth inhibition corresponds to the IC50. Tumor cell growth inhibitory rate was calculated using Equation (1): % inhibition = (1 − Sample group OD/Control group OD) × 100%(1)"}, "[2]": {"tested_on": "HepG2 cells (non-PSMA-expressing)", "assay": "cells", "format": "cell-based, human", "details": "MTT, 72 h, mean ± SD, n = 3; read-out: IC50 HepG2", "method": "as §1, §2, §3"}, "[3]": {"tested_on": "MCF-7 cells (non-PSMA-expressing)", "assay": "cells", "format": "cell-based, human", "details": "MTT, 72 h, mean ± SD, n = 3; read-out: IC50 MCF-7", "method": "as §1, §2, §3"}, "[4]": {"tested_on": "PC-3 cells (non-PSMA-expressing)", "assay": "cells", "format": "cell-based, human", "details": "MTT, 72 h, mean ± SD, n = 3; read-out: IC50 PC-3", "method": "as §1, §2, §3"}, "[5]": {"tested_on": "LNCaP-FGC cells (PSMA-expressing)", "assay": "MTT cytotoxicity assay, LNCaP-FGC", "format": "cell-based, human", "method": "as §1, §2, §3"}, "[6]": {"tested_on": "HeLa cells (non-PSMA-expressing)", "assay": "MTT cytotoxicity assay, HeLa", "format": "cell-based, human", "details": "72 h, mean ± SD, n = 3", "method": "as §1\nThe tested compounds were dissolved in DMSO (Sigma, St. Louis, MO, USA) and added at required concentrations to the cell culture.\nas §3, with “experiments.” for “experiments. The concentration of the compound that results in 50% growth inhibition corresponds to the IC50. Tumor cell growth inhibitory rate was calculated using Equation (1): % inhibition = (1 − Sample group OD/Control group OD) × 100%(1)”"}, "LO2 cells": {"tested_on": "LO2 cells", "assay": "cells", "format": "cell-based", "details": "MTT, 72 h, normal cells; read-out: IC50 LO2", "method": "as §1, §3"}, "MDCK cells": {"tested_on": "MDCK cells", "assay": "cells", "format": "cell-based", "details": "MTT, 72 h, normal cells; read-out: IC50 MDCK", "method": "as §1, §3"}, "LNCaP-FGC (PSMA+) cells [7]": {"tested_on": "LNCaP-FGC (PSMA+) cells", "assay": "In vitro cellular uptake by CLSM, LNCaP-FGC", "format": "cell-based, human", "details": "10 µM", "source_text": "(§4) In addition to solubilization, the pentapeptide serves to mask the cytotoxicity by preventing nonspecific uptake of drug into cells due to the presence of negative charged amino acids. Upon cleavage of the prodrug by PSMA within the PSMA-expressing cells, the active compound was able to enter cells. […] The nucleus was stained with PI (red) and the fluorescence of CPT was pseudo-colored with blue.\n(§5) To evaluate the cellular uptake of the CPT-HT-J-ZL12, LNCaP-FGC (PSMA^+) and HepG2 (PSMA^−) cells were seeded at a density of 1 × 10^4 cells/well in 35 mm glass bottom dishes with 1 mL complete 1640 medium. After incubation for 24 h, the culture medium was replaced with 2 mL of fresh medium containing 10 µM CPT-HT-J-ZL12. Then the cells were incubated further for different incubation time periods (1 and 4 h). Following the removal of the culture media, cells were washed with cold PBS, fixed with 70% ethanol for 30 min at 4 °C. Subsequently, the cells were stained with 5 μg/mL propidium iodide (excitation wavelength was 561 nm) for 5 min to visualize nucleus. The cells were observed by a UltraView RS confocal laser scanning microscopy (PerkinElmer, Waltham, MA, USA)."}, "HepG2 (PSMA−) cells [8]": {"tested_on": "HepG2 (PSMA−) cells", "assay": "In vitro cellular uptake by CLSM, HepG2", "format": "cell-based, human", "details": "HepG2, 10 µM, 1 h and 4 h", "source_text": "as §4, §5"}, "LNCaP-FGC (PSMA+) cells [9]": {"tested_on": "LNCaP-FGC (PSMA+) cells", "assay": "Cell cycle by PI staining flow cytometry, LNCaP-FGC", "format": "cell-based, human", "details": "for percentage of cells in S phase (Dip S): 72 h", "method": "To further study CPT-HT-J-ZL12-induced growth inhibition, the cell cycle changes were evaluated on LNCaP-FGC (PSMA^+) using flow cytometric methods.\nThe cell cycle was measured using PI staining and flow cytometry analysis according to the instructions of the manufacturer (Cell Cycle and Apoptosis Analysis Kit, Beyotime Biotechnology, Jiangsu, China). LNCaP-FGC cells (2 × 10^4 cells/mL) in logarithmic growth phase were seeded in 6-well culture plate and incubated for 24 h at 37 °C in incubator with 5% CO2. After exposure to different concentrations of CPT-HT-J-ZL12 (0.63, 1.25, 2.50 μM) for 72 h, cells were harvested and washed twice with cold PBS. Then the cells were centrifuged at 2400× g for 10 min, resuspended in 1 mL 70% cold ethanol and fixed for 12 h at −20 °C. After being washed twice with cold PBS, the cells were incubated with 0.5 mL propidium iodide for 30 min at 37 °C. Detection of the cell cycle was carried out by the Flow Cytometer at 488 nm excitation wavelength"}, "HepG2 (PSMA−) cells [10]": {"tested_on": "HepG2 (PSMA−) cells", "assay": "Apoptosis by Annexin V-FITC/PI flow cytometry, HepG2", "details": "72 h", "procedure": "(§6) The apoptotic effect was determined by counting the apoptosis ratios (including the early and late apoptosis ratios).\n(§7) To determine early apoptosis and secondary necrosis, LNCaP-FGC (PSMA^+) and HepG2 (PSMA^−) cells were stained with annexin-V FITC apoptosis detection kit (Beijing BioDee Biotech. Co., Ltd., Beijing, China) as per the manufacturer’s instructions. […] The resulting pellet was mixed with 200 µL binding buffer of the Annexin V-FITC kit, then 5 µL FITC labeled annexin V was added and mixed gently. After incubation at 4 °C for 10 min in the dark, 5 µL PI was added and mixed gently. Then the cells were immediately analyzed with a flow cytometry."}, "LNCaP-FGC (PSMA+) cells [11]": {"tested_on": "LNCaP-FGC (PSMA+) cells", "assay": "Apoptosis by Annexin V-FITC/PI flow cytometry, LNCaP-FGC", "details": "72 h", "procedure": "as §6, §7"}}, "note": "Values joined by “and” are separate entries in the source; they are usually repeats but may differ in a detail not shown here. Equal values may be shown once."}
{"compound": "CC[C@@]1(OC(=O)CCCCCCCCCCCNC(=O)[C@@H](N)CCC(=O)N[C@@H](CCC(=O)N[C@@H](CCC(=O)N[C@@H](CC(=O)O)C(=O)N[C@@H](CCC(=O)O)C(=O)O)C(=O)O)C(=O)O)C(=O)OCc2c1cc1n(c2=O)Cc2cc3ccccc3nc2-1", "note": "[CPT-HT-J-ZL12, (3S,6S,11S,16S,21S)-21-amino-6-(carboxymethyl)-35-(((S)-4-ethyl-3,14-dioxo-3,4,12,14-tetrahydro-1H-pyrano[3′,4′:6,7]indolizino[1,2-b]quinolin-4-yl)oxy)-5,8,13,18,22,35-hexaoxo-4,7,12,17,23-pentaazapentatriacontane-1,3,11,16-tetracarboxylic acid]", "values": [{"measurement": "IC50", "setting": "[1]", "value": "5.4 ± 1.22", "unit": "µM"}, {"measurement": "IC50", "setting": "[2]", "value": "> 40", "unit": "µM"}, {"measurement": "IC50", "setting": "[3]", "value": "21.7 ± 4.96", "unit": "µM"}, {"measurement": "IC50", "setting": "[4]", "value": "43 ± 3.69", "unit": "µM"}, {"measurement": "cytotoxicity against LNCaP-FGC higher than against DU145", "setting": "[5]; LNCaP-FGC (PSMA+) vs DU145", "value": 5, "unit": "fold"}, {"measurement": "cytotoxicity against LNCaP-FGC higher than against Hela", "setting": "[5]; LNCaP-FGC (PSMA+) vs Hela", "value": "40 fold and ~ 40 fold"}, {"measurement": "cytotoxicity against LNCaP-FGC higher than against HepG2", "setting": "[5]; LNCaP-FGC (PSMA+) vs HepG2", "value": "40 fold and ~ 40 fold"}, {"measurement": "cytotoxicity against LNCaP-FGC higher than against MCF-7", "setting": "[5]; LNCaP-FGC (PSMA+) vs MCF-7", "value": 21, "unit": "fold"}, {"measurement": "IC50", "setting": "[5]; MTT, 72 h, mean ± SD, n = 3, PSMA+, read-out: IC50 LNCaP-FGC", "value": "1 ± 0.2", "unit": "µM"}, {"measurement": "IC50", "setting": "[6]", "value": "> 40", "unit": "µM"}, {"measurement": "IC50", "setting": "LO2 cells", "value": "> 40", "unit": "µM"}, {"measurement": "IC50", "setting": "MDCK cells", "value": "> 40", "unit": "µM"}, {"measurement": "cellular uptake (blue CPT fluorescence intensity)", "setting": "LNCaP-FGC (PSMA+) cells [7]; 1 h", "value": "stronger"}, {"measurement": "cellular uptake (blue CPT fluorescence)", "setting": "LNCaP-FGC (PSMA+) cells [7]; 4 h", "value": "increased with the incubation time"}, {"measurement": "cellular uptake (blue CPT fluorescence)", "setting": "HepG2 (PSMA−) cells [8]", "value": "almost no blue fluorescence"}, {"measurement": "percentage of cells in S phase (Dip S)", "setting": "LNCaP-FGC (PSMA+) cells [9]; 1.25 µM", "value": 70.86, "unit": "%"}, {"measurement": "percentage of cells in S phase (Dip S)", "setting": "LNCaP-FGC (PSMA+) cells [9]; 2.50 µM", "value": 83.66, "unit": "%"}, {"measurement": "effect on cell cycle", "setting": "LNCaP-FGC (PSMA+) cells [9]; 0.63 to 2.50 µM", "value": "induce cell cycle arrest at the S phase"}, {"measurement": "percentage of apoptotic cells", "setting": "HepG2 (PSMA−) cells [10]; HepG2, 20.00 µM", "value": 19.80, "unit": "%"}, {"measurement": "percentage of apoptotic cells", "setting": "HepG2 (PSMA−) cells [10]; HepG2, 40.00 µM", "value": 28.30, "unit": "%"}, {"measurement": "percentage of apoptotic cells", "setting": "HepG2 (PSMA−) cells [10]; HepG2, 80.00 µM", "value": 30.10, "unit": "%"}, {"measurement": "apoptosis ratio (early and late)", "setting": "LNCaP-FGC (PSMA+) cells [11]; 0.63 µM", "value": 29.90, "unit": "%"}, {"measurement": "apoptosis ratio (early and late)", "setting": "LNCaP-FGC (PSMA+) cells [11]; 1.25 µM", "value": 33.30, "unit": "%"}, {"measurement": "apoptosis ratio (early and late)", "setting": "LNCaP-FGC (PSMA+) cells [11]; 2.50 µM", "value": 48.90, "unit": "%"}]}
